Measured values taken from patent US20230321253A1, “BIFUNCTIONAL COMPOUNDS AND PHARMACEUTICAL USES THEREOF” (RISEN (SUZHOU) PHARMA TECH CO., LTD., priority 2022, published 2023).

Molecular target: T1, KRAS-G12D protein (Homo sapiens, UniProt P01116, G12D)
T1 construct: host or cells: Aspc-1 cells
Assay: KRAS-G12D protein degradation study in Aspc-1 cells (western blot)
Assay type: cell-based
Conditions: for inhibition at 0.1 µM: ASPC1, 24 h, read-out: Rate of protein degradation (KRAS^G12D); for inhibition at 0.1 µM / Rate of protein degradation (KRAS^G12D): Aspc-1 cells treated with 0.1 μM compound, 24 hours; for DC50: Aspc-1 cells, read-out: DC50 of test compound-induced KRAS^G12D protein degradation
Protocol: Aspc-1 (Cobioer, CBP60546) cells in exponential growth phase were inoculated on a 6-well cell culture plate (Corning, 3516) at density of 1E6/well; and cells in the plate were cultured in 37° C. incubator containing 5% carbon dioxide. The next day, test compounds were dissolved in DMSO (Sigma, RNBF5902) for the preparation of a 10 mM concentration stock solution. The stock solution was diluted with complete medium (RPMI-1640 supplemented with 10% fetal bovine serum, 1% penicillin-streptomycin), yielding working solutions of various concentrations. The plate, after the addition of compounds, was placed in a 5% carbon dioxide incubator, and incubated at 37° C. for 24 hours (final DMSO concentration was 0.1%). The plate was then removed from the incubator, and the cells were washed twice with precooled PBS (Gibco, 14190250), followed by addition of 80 μL RIPA lysis buffer (containing protease inhibitor (Invitrogen™, AM2696)) to each well. The adherent cells were scraped off with a cell scraper, and the cell lysate was transferred to a 1.5 mL centrifuge tube followed with a 30-minute incubation on ice. The lysate was then clarified with centrifugation at 14000 rpm for 10 min at 4° C. The supernatant was transferred into a new 1.5 mL centrifuge tube, and protein concentration was measured with BCA protein detection kit (Thermo Fisher, 23225). KRAS-G12D protein level was assessed by western blot.
A mixture of cell lysate (40 μL) and loading buffer (10 μL 5×SDS (Beyotime, P0015L)) was denatured in a water bath at 95° C. for 10 min. The denatured protein sample, at 30 μL/well, was loaded into the corresponding well of a 4-20% Bis-Tris gel (Kingsley, M00656). Protein samples were initially electrophoresed at 80 V for 30 minutes, followed by 120 V for 40 minutes, until the bromophenol blue strip ran to an appropriate position. After electrophoresis, iBlot2 (Life Technologies, IB21001) was used to transfer the separated samples onto PVDF film. The PVDF membrane was washed with double-distilled water and then blocked in TBST (Thermo Scientific, 28360) buffer containing 5% non-fat milk, for 2 hours. Blocked membrane was rinsed with tris-buffered saline tween-20 (Thermo Scientific, 28360, TBST) three times, 10 minutes each. Membrane was then incubated with 1:1000 diluted KRAS primary antibody (CST, cat #14429S) overnight at 4° C. Membrane was rinsed as described previously followed by 1 hour incubation of secondary antibody at room temperature. After washing the film three times with TBST, ECL color developing solution was applied, and image was captured with Biorad Chemi Doc gel imager. The band gray value was quantified (Image Lab), and protein degradation level was calculated according to the following formula:
Level of RAS protein expression=(RAS-compound/GAPDH)/(RAS-DMSO/GAPDH)
Level of degradation (%)=(1−Rate of RAS protein expression)×100
The symbols “−”, “+”, “++”, and “+++” indicate that the degradation level of KRAS^G12D protein induced by the test compounds was 10% or less, 11 to 30%, 31 to 60%, and greater than 60%, respectively.
Half-maximum degradation concentrations (DC50s) of exemplary test compounds were calculated using GraphPad Prism and their values are shown in Table 6. The symbols “++++”, “+++”, “++” and “+” indicate DC50 equal or less than 10 nM, 11-50 nM, 51-100 nM, and 101-200 nM, respectively.

T1 sequence (P01116 1-188 isoform P01116-2 G12D): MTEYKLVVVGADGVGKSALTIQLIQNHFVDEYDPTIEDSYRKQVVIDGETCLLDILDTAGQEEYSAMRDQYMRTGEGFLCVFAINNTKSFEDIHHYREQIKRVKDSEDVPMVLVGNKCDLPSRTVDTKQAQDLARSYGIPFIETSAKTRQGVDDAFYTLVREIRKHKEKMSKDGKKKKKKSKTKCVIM

SMILES	inhibition at 0.1 µM [%]	DC50 [nM]	Rate of protein degradation (KRAS^G12D)
CCc1c(F)ccc2cc(O)cc(-c3ncc4c(N5CC6CCC(C5)N6)nc(OCC5(CN6CCC7(CC6)CC(N6CCC(c8ccc9c(C%10CCC(=O)NC%10=O)nn(C)c9c8)CC6)C7)CC5)nc4c3F)c12 (stereo not drawn) [Compound 81]	31 to 60	–	–
C#Cc1c(F)ccc2cc(O)cc(-c3ncc4c(N5CC6CCC(C5)N6)nc(O[C@H]5CCN(CCCCCCCCCC(=O)N[C@H](C(=O)N6C[C@H](O)C[C@H]6C(=O)N[C@@H](C)c6ccc(-c7scnc7C)cc6)C(C)(C)C)C5)nc4c3F)c12 [Compound 83]	11 to 30	101 to 200	–
C#Cc1c(F)ccc2cc(O)cc(-c3ncc4c(N5CC6CCC(C5)N6)nc(O[C@H]5CCN(CCCCCCCCCCCC(=O)N[C@H](C(=O)N6C[C@H](O)C[C@H]6C(=O)N[C@@H](C)c6ccc(-c7scnc7C)cc6)C(C)(C)C)C5)nc4c3F)c12 [Compound 84]	31 to 60	–	–
C#Cc1c(F)ccc2cc(O)cc(-c3ncc4c(N5CC6CCC(C5)N6)nc(O[C@H]5CCN(CCCCCCCCCCC(=O)N[C@H](C(=O)N6C[C@H](O)C[C@H]6C(=O)N[C@@H](C)c6ccc(-c7scnc7C)cc6)C(C)(C)C)C5)nc4c3F)c12 [Compound 85]	> 60	–	–
C#Cc1c(F)ccc2cc(O)cc(-c3ncc4c(N5CC6CCC(C5)N6)nc(O[C@@H]5CCN(CCCCCCCCCCC(=O)N[C@H](C(=O)N6C[C@H](O)C[C@H]6C(=O)N[C@@H](C)c6ccc(-c7scnc7C)cc6)C(C)(C)C)C5)nc4c3F)c12 [Compound 86]	31 to 60	–	–
C#Cc1c(F)ccc2cc(O)cc(-c3ncc4c(N5CC6CCC(C5)N6)nc(O[C@@H]5CCN(CCCCCCCCCCCC(=O)N[C@H](C(=O)N6C[C@H](O)C[C@H]6C(=O)N[C@@H](C)c6ccc(-c7scnc7C)cc6)C(C)(C)C)C5)nc4c3F)c12 [Compound 87]	31 to 60	–	–
C#Cc1c(F)ccc2cc(O)cc(-c3ncc4c(N5CC6CCC(C5)N6)nc(O[C@@H]5CCN(CCCCCCCCCC(=O)N[C@H](C(=O)N6C[C@H](O)C[C@H]6C(=O)N[C@@H](C)c6ccc(-c7scnc7C)cc6)C(C)(C)C)C5)nc4c3F)c12 [Compound 88]	≤ 10	–	–
C#Cc1c(F)ccc2cc(O)cc(-c3ncc4c(N5CC6CCC(C5)N6)nc(OCC5C[C@@H](NC(=O)CCCCCCCCCCC(=O)N6CCC(c7ccc8c(C9CCC(=O)NC9=O)nn(C)c8c7)CC6)CN5C)nc4c3F)c12 (stereo partly drawn) [Compound 89]	≤ 10	–	–
C#Cc1c(F)ccc2cc(O)cc(-c3ncc4c(N5CC6CCC(C5)N6)nc(OC[C@@H]5C[C@@H](NC(=O)CCCCCCCCCCC(=O)N[C@H](C(=O)N6C[C@H](O)C[C@H]6C(=O)N[C@@H](C)c6ccc(-c7scnc7C)cc6)C(C)(C)C)CN5C)nc4c3F)c12 [Compound 90]	≤ 10	–	–
C#Cc1c(F)ccc2cc(O)cc(-c3ncc4c(N5CC6CCC(C5)N6)nc(OC[C@@H]5C[C@@H](NC(=O)CCCCCCC(=O)N[C@H](C(=O)N6C[C@H](O)C[C@H]6C(=O)N[C@@H](C)c6ccc(-c7scnc7C)cc6)C(C)(C)C)CN5C)nc4c3F)c12 [Compound 91]	–	–	− (10% or less)
C#Cc1c(F)ccc2cc(O)cc(-c3ncc4c(N5CC6CCC(C5)N6)nc(OCC56CCCN5[C@@H](COC(=O)NCCCCCCCCCCC(=O)N[C@H](C(=O)N5C[C@H](O)C[C@H]5C(=O)N[C@@H](C)c5ccc(-c7scnc7C)cc5)C(C)(C)C)CC6)nc4c3F)c12 (stereo partly drawn) [Compound 93]	> 60	51 to 100	–
C#Cc1c(F)ccc2cc(O)cc(-c3ncc4c(N5CC6CCC(C5)N6)nc(OCC5CCN(CC(=O)N6CCC(c7ccc8c(C9CCC(=O)NC9=O)nn(C)c8c7)CC6)C5)nc4c3F)c12 (stereo not drawn) [Compound 94]	31 to 60	–	–
C#Cc1c(F)ccc2cc(O)cc(-c3ncc4c(N5CC6CCC(C5)N6)nc(OC[C@@H]5C[C@@H](NC(=O)N6CCC(c7ccc8c(C9CCC(=O)NC9=O)nn(C)c8c7)CC6)CN5C)nc4c3F)c12 (stereo partly drawn) [Compound 95]	11 to 30	–	–
C#Cc1c(F)ccc2cc(O)cc(-c3ncc4c(N5CC6CCC(C5)N6)nc(OCC56CCCN5[C@@H](COC(=O)N5CCC(c7ccc8c(C9CCC(=O)NC9=O)nn(C)c8c7)CC5)CC6)nc4c3F)c12 (stereo partly drawn) [Compound 97]	31 to 60	–	–
C#Cc1c(F)ccc2cc(O)cc(-c3ncc4c(N5CC6CCC(C5)N6)nc(OCC56CCCN5[C@@H](COC(=O)NCCCCCCCCCC(=O)N[C@H](C(=O)N5C[C@H](O)C[C@H]5C(=O)N[C@@H](C)c5ccc(-c7scnc7C)cc5)C(C)(C)C)CC6)nc4c3F)c12 (stereo partly drawn) [Compound 98]	31 to 60	–	–
C#Cc1c(F)ccc2cc(O)cc(-c3ncc4c(N5CC6CCC(C5)N6)nc(OCC5(CN6CCC(c7ccc8c(C9CCC(=O)NC9=O)nn(C)c8c7)CC6)CC5)nc4c3F)c12 (stereo not drawn) [Compound 99]	–	11 to 50	+++ (greater than 60%)
C#Cc1c(F)ccc2cc(O)cc(-c3ncc4c(N5CC6CCC(C5)N6)nc(OC5CCN(CC(=O)N6CCC7(CC6)CC(N6CCC(c8ccc9c(C%10CCC(=O)NC%10=O)nn(C)c9c8)CC6)C7)C5)nc4c3F)c12 (stereo not drawn) [Compound 101]	–	–	+ (11 to 30%)
C#Cc1c(F)ccc2cc(O)cc(-c3ncc4c(N5CC6CCC(C5)N6)nc(OC5CCN(CCCCCCCCCCC(=O)N6CCN(C(=O)C[C@H](NC(=O)[C@@H]7C[C@@H](O)CN7C(=O)[C@@H](NC(=O)C7(F)CC7)C(C)(C)C)c7ccc(-c8scnc8C)cc7)CC6)CC5)nc4c3F)c12 [Compound 103]	≤ 10	–	–
C#Cc1c(F)ccc2cc(O)cc(-c3ncc4c(N5CC6CCC(C5)N6)nc(OCC5(CN6CCN(CCCCCCCCCCC(=O)N7CCN(C(=O)C[C@H](NC(=O)[C@@H]8C[C@@H](O)CN8C(=O)[C@@H](NC(=O)C8(F)CC8)C(C)(C)C)c8ccc(-c9scnc9C)cc8)CC7)CC6)CC5)nc4c3F)c12 [Compound 106]	11 to 30	–	–
C#Cc1c(F)ccc2cc(O)cc(-c3ncc4c(N5CC6CCC(C5)N6)nc(OCC5(CN6CCC(C(=O)N7CCN(c8ccc(NC9CCC(=O)NC9=O)cc8F)CC7)CC6)CC5)nc4c3F)c12 (stereo not drawn) [Compound 107]	11 to 30	–	–
C#Cc1c(F)ccc2cc(O)cc(-c3ncc4c(N5CC6CCC(C5)N6)nc(OCC5(CN6CCN(C(=O)CN7CCN(c8ccc(NC9CCC(=O)NC9=O)cc8F)CC7)CC6)CC5)nc4c3F)c12 (stereo not drawn) [Compound 108]	≤ 10	–	–
C#Cc1c(F)ccc2cc(O)cc(-c3ncc4c(N5CC6CCC(C5)N6)nc(OCC5(CN6CCN(CC7CCN(c8ccc(NC9CCC(=O)NC9=O)cc8F)CC7)CC6)CC5)nc4c3F)c12 (stereo not drawn) [Compound 109]	31 to 60	–	–
C#Cc1c(F)ccc2cc(O)cc(-c3ncc4c(N5CC6CCC(C5)N6)nc(OCC5(CN6CCC7(CC6)CCN(c6ccc(NC8CCC(=O)NC8=O)cc6F)CC7)CC5)nc4c3F)c12 (stereo not drawn) [Compound 110]	31 to 60	< 10	–
C#Cc1c(F)ccc2cc(O)cc(-c3ncc4c(N5CC6CCC(C5)N6)nc(OCC5(CN6CCC(N7CCC(c8ccc9c(C%10CCC(=O)NC%10=O)nn(C)c9c8)CC7)CC6)CC5)nc4c3F)c12 (stereo not drawn) [Compound 113]	> 60	< 10	–
C#Cc1c(F)ccc2cc(O)cc(-c3ncc4c(N5CC6CCC(C5)N6)nc(OC5CCN(CC(=O)N6CCC7(CC6)CC(N6CCC(c8ccc(NC9CCC(=O)NC9=O)cc8F)CC6)C7)CC5)nc4c3F)c12 (stereo not drawn) [Compound 114]	> 60	< 10	–
C#Cc1c(F)ccc2cc(O)cc(-c3ncc4c(N5CC6CCC(C5)N6)nc(OCC5(CN6CCN(CC7CCN(c8ccc9c(c8)C(=O)N(C8CCC(=O)NC8=O)C9=O)CC7)CC6)CC5)nc4c3F)c12 (stereo not drawn) [Compound 115]	31 to 60	11 to 50	–
